{"source": "paper PMC8717366", "about": "“Synthesis and Pharmacological Characterization of Visabron, a Backbone Cyclic Peptide Dual Antagonist of α4β1 (VLA-4)/α9β1 Integrin for Therapy of Multiple Sclerosis” (JACS Au, 2021)", "target": "T1, LynA (Homo sapiens, UniProt P07948)", "T1 construct": "purchased Carna 08-171", "T1 sequence (P07948 whole entry)": "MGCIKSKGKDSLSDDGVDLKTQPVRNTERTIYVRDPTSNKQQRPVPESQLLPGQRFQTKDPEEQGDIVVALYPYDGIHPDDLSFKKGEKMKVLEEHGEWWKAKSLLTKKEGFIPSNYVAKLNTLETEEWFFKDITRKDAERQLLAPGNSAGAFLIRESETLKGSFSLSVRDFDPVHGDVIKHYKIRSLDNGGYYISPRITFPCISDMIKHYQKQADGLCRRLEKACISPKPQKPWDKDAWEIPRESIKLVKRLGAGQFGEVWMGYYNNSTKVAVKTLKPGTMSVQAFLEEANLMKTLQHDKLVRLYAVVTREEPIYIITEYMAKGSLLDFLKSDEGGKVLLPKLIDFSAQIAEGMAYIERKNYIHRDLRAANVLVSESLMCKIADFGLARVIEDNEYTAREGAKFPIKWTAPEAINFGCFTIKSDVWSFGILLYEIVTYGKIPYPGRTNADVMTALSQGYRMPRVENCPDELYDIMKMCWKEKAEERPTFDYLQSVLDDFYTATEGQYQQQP", "assay": "PhosphoSens CSox-based kinase assay, LynA", "assay_type": "biochemical", "conditions": "1 mM, but not 0.1 mM; Figure 7", "procedure": "Kinase activity was measured using the PhosphoSenstechnology (AssayQuant Technologies Inc., Marlborough, MA) as detailed in the Supporting Information. […]\nVisabron c (4-4) safety by in vitro evaluation using PhosphoSens - CSox based kinase assays:\nA powerful method was used to measure the activity of recombinant protein kinases using a homogeneous and continuous (kinetic) format, where the level of chelation-enhanced fluorescence (CHEF) that is directly proportional to the amount of phosphorylated, real-time sensors consisting of sulfonamido-oxine (Sox) chromophore, linked to a peptide or protein substrates of selective kinases 6. […]\nKinase activity measurements: Kinase activity was measured continuously using the PhosphoSens® technology (AssayQuant Technologies Inc., Marlborough, MA) according to the manufacturers’ recommendations. This one-step homogeneous assay format uses chelation -enhanced fluorescence via optimized substrate sensors containing the unnatural fluorogenic amino -acid Sox. […]\nFinal reaction conditions : Protein kinase activity was determined in 54 mM HEPES, pH 7.5, 1 mM ATP, 1.2 mM DTT, 0.012% Brij-35, 0.52 mM EGTA, 10 mM MgCl2, 1% glycerol, 0.2mg/ml BSA, and 15 μM Sox -based sensor. […]", "note": "Numbered stars: 1 amine (or outer) side, 2 acyl side, 3 side chain; on linkers, the order of the positions; unused ones are H or OH. Bridge positions count the residues as written; N and C are the ends. Square brackets hold non-standard residues; d marks the D form. Peptide text beside a SMILES is read from it. CO = O=C([*:1])[*:2]; Nlys = NCCCCNCC(=O)O"}
{"smiles": "CSCC[C@@H]1NC(=O)[C@H]([C@@H](C)O)NC(=O)CN(C(=O)[C@@H](N)CCCCN)CCCCNC(=O)NCCCCN(CC(=O)N[C@@H](CC(C)C)C(N)=O)C(=O)[C@H](CC(=O)O)NC(=O)[C@H](CC(C)C)NC1=O", "note": "[visabron c (4–4)] (H-K[Nlys]TMLD[Nlys]L-NH2; linker 2-7 via CO)", "values": [{"measurement": "inhibition at 1000 µM", "result": "25 to 40", "unit": "%"}]}
